# pIC50: −log10 of the molar value. Read-outs that look alike come from different tables or passages of the source.
# How the values were obtained:
# [1] = test system: BTK and AKT phosphorylation; test: Inhibitor washout assay, Mino cells; format: cell-based, human; settings: 1 h treatment, washes with PBS
# Protocol: The BCR pathways in the washed cells were stimulated with 10 μg/mL of goat F(ab’)2 anti-human IgM antibody, and the cells were harvested and lysed. The resulting lysates were analyzed by western blot.
# Mino cells [2] = test: FITC Annexin V apoptosis assay, Mino; format: cell-based, human; settings: 5 μM, 24 h
# Protocol: Jeko-1 and Mino cells were seeded at a density of 2x10^6 cells and incubated overnight. […] Cells were harvested and washed twice with cold PBS, and then labeled with Annexin V-FITC and PI (BD Pharmingen, Cat # 556419) or Annexin APC (Thermo Fisher, Cat # A35110) according to the manufacturer’s protocol (BD Pharmingen). The labeled cells were analyzed using BD Accuri C6 Flow cytometer. Experiments were performed in duplicate.
# Mino cells [3] = test: Cell viability assay (alamarBlue / CellTiter-Glo), Mino; format: cell-based; settings: Homo sapiens, 48 h, read-out: IC50, anti-proliferative activity, Mino
# Protocol: (§2) Cells were treated with DMSO (0.1% final) or increasing concentrations of the indicated inhibitors for 48 h. 100 μL of Alamar blue (ThermoFisher Scientific) and Cell titer Glow assay reagent (Promega Cat # G9241) was added to each well, and the cells were incubated for 10 min at room temperature. Luminescence signal was measured in a VarioScan multimode reader. For Alamar Blue, fluorescence signals were read (emission at 590 nm after excitation at 560 nm). Averaged values were normalized as a percentage of DMSO (control) and analyzed by nonlinear regression then plotted for dose response using GraphPad Prism (GraphPad Software, Inc.). Experiments were performed in triplicate.
# Mino BTK C481S cells = test: Cell viability assay, Mino BTK C481S; format: cell-based; settings: Homo sapiens, 48 h
# Protocol: as §2
# JeKo-1 cells [4] = test: Cell viability assay (alamarBlue / CellTiter-Glo), JeKo-1; format: cell-based; settings: Homo sapiens, JeKo-1, 48 h; read-out: IC50, anti-proliferative activity, JeKo-1
# Protocol: as §2
# [5] = test system: relapsed/refractory (R/R) MCL patients; settings: R/R MCL patients treated with Ibrutinib; cited from earlier work
# JeKo-1 cells [6] = test: FITC Annexin V apoptosis assay, JeKo-1; format: cell-based, human; settings: JeKo-1, 5 μM, 24 h
# Protocol: Jeko-1 and Mino cells were seeded at a density of 2x10^6 cells and incubated overnight. […] The labeled cells were analyzed using BD Accuri C6 Flow cytometer. Experiments were performed in duplicate.
# JeKo-1 BTK C481S cells = test: Cell viability assay, JeKo-1 BTK C481S; format: cell-based; settings: Homo sapiens, JeKo-1, 48 h
# Protocol: as §2
# PI3Kδ = molecular target: T1, PI3Kδ (Homo sapiens, UniProt O00329); test: Adapta kinase activity assay, PI3Kδ; format: biochemical
# T1 construct: purchased ThermoFisher Scientific (contract assay)
# Protocol: (§1) Adapta kinase activity assays were carried out by ThermoFisher Scientific (Waltham, MA) to measure IC50 of the indicated inhibitors for PI3K isoforms. Kinase activity assays were carried out by Reaction Biology (Malvern, PA) to measure IC50 of the indicated inhibitors for BTK WT and BTK C481S (Ibrutinib-resistant mutant). Alpha Screen assays were carried out by Reaction Biology (Malvern, PA) to measure IC50 of the indicated inhibitors for His-tagged BRD4 BD1 and BD2 bromodomains.
# PI3Kγ = molecular target: T2, PI3Kγ (Homo sapiens, UniProt P48736); test: Adapta kinase activity assay, PI3Kγ; format: biochemical
# T2 construct: purchased ThermoFisher Scientific (contract assay)
# Protocol: as §1
# BTK WT = molecular target: T3, BTK WT (Homo sapiens, UniProt Q06187); test: Kinase activity assay, BTK WT; format: biochemical
# T3 construct: purchased Reaction Biology (contract assay)
# [7] = molecular target: T4, BTK C481S (Ibrutinib-resistant mutant) (Homo sapiens, UniProt Q06187, C481S); test: Kinase activity assay, BTK C481S; format: biochemical
# T4 construct: purchased Reaction Biology (contract assay)
# PI3Kα = molecular target: T5, PI3Kα (Homo sapiens, UniProt P42336); test: Adapta kinase activity assay, PI3Kα; format: biochemical
# T5 construct: purchased ThermoFisher Scientific (contract assay)
# Protocol: as §1
# T5 sequence (P42336 whole entry): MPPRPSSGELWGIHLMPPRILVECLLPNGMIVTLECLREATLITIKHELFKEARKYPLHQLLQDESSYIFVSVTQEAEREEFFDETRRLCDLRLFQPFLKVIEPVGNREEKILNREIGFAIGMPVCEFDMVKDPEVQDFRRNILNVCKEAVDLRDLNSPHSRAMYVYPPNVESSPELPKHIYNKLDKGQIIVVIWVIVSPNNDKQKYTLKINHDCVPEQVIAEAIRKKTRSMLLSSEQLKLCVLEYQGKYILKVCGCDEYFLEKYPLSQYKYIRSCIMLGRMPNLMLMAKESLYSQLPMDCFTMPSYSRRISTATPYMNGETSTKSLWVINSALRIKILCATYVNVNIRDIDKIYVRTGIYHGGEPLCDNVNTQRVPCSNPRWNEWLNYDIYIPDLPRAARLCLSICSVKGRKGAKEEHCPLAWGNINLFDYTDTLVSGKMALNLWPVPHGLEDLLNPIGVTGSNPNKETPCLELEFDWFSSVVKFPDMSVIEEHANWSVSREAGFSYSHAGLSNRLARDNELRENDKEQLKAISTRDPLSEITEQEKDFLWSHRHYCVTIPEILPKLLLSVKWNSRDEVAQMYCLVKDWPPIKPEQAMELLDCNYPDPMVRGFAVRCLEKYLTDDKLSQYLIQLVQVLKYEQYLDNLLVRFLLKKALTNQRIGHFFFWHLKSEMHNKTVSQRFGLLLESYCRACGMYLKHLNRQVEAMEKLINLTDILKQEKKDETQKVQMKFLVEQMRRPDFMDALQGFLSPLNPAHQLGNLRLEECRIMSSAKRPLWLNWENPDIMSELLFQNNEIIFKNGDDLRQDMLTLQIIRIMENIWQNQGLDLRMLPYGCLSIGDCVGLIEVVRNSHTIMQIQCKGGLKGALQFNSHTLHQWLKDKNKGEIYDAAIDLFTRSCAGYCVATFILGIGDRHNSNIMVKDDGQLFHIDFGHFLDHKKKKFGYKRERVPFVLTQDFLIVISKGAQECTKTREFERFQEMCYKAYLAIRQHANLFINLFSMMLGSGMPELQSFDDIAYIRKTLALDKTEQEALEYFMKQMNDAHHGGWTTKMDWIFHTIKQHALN
# T5 sequence (P27986 whole entry partner): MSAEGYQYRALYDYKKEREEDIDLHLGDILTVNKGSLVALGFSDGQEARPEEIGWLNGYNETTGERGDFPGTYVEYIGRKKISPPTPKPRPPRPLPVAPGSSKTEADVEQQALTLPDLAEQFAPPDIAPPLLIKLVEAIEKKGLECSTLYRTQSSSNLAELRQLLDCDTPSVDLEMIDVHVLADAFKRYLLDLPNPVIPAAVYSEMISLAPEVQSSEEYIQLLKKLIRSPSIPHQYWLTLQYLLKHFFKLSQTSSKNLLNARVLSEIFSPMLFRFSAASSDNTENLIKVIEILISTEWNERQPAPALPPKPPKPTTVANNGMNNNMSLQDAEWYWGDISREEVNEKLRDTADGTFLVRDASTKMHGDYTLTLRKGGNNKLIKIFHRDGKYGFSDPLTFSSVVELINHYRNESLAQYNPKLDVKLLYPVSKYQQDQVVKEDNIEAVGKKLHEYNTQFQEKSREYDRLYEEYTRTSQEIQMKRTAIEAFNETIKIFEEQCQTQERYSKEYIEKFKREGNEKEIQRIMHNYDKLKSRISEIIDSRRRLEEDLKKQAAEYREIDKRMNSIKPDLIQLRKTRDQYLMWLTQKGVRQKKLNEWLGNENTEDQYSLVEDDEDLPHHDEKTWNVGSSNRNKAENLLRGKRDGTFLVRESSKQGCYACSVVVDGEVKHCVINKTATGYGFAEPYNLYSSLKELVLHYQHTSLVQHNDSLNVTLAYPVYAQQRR
# T1 sequence (O00329 whole entry): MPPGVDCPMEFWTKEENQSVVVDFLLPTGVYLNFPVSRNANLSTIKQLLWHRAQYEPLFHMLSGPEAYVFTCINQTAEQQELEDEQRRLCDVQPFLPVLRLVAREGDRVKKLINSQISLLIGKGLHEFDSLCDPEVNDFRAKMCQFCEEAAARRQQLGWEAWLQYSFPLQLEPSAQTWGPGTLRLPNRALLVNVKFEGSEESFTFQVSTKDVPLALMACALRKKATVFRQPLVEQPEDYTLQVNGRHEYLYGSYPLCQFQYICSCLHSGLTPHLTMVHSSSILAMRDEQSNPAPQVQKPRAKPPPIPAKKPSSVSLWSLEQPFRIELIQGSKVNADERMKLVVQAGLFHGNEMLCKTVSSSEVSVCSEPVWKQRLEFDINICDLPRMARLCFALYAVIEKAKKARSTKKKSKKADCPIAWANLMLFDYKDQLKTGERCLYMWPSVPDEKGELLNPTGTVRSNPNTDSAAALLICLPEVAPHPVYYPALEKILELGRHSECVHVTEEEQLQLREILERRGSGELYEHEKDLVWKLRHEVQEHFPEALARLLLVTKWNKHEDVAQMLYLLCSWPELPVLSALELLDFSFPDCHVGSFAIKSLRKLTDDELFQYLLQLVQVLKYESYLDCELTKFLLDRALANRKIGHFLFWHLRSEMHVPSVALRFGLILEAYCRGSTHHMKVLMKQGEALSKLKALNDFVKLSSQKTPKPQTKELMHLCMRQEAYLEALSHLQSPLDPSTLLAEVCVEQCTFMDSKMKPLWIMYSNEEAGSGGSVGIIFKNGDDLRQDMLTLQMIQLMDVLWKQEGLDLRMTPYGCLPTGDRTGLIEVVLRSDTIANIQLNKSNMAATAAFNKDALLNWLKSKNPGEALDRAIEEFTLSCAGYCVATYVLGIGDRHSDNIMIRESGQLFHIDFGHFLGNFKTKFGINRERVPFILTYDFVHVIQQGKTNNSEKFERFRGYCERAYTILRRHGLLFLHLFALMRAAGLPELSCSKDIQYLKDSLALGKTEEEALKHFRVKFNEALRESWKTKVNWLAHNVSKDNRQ
# T1 sequence (P27986 whole entry partner): as the sequence (P27986 whole entry partner) above
# T2 sequence (P48736 whole entry): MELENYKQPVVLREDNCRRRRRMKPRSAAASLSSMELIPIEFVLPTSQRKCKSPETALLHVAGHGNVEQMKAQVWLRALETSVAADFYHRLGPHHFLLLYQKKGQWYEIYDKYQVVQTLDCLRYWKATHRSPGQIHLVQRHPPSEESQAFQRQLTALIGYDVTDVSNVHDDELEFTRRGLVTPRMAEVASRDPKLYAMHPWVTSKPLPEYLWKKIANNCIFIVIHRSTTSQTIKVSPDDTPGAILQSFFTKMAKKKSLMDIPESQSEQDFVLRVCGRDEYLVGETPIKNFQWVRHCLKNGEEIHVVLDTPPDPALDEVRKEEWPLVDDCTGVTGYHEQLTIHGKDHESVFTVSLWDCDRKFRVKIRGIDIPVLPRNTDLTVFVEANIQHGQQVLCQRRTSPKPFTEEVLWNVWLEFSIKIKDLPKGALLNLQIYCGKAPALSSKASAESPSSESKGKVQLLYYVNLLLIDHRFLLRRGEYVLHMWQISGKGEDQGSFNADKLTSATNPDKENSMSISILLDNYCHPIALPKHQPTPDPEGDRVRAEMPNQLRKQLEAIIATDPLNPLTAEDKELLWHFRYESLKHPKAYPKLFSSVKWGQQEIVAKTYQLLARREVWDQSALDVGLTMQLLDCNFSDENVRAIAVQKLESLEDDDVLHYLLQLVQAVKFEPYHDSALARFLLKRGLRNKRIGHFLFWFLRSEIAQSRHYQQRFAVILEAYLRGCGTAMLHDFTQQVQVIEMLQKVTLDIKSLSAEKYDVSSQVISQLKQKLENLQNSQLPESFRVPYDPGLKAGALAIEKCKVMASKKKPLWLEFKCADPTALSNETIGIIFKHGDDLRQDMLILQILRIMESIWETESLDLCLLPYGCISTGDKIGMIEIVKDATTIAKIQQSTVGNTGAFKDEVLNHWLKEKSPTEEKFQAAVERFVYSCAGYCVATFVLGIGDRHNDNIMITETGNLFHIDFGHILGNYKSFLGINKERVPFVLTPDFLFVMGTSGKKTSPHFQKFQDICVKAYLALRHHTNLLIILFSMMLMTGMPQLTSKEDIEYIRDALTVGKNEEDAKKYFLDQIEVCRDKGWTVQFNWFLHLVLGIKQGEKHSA
# T3 sequence (Q06187 whole entry): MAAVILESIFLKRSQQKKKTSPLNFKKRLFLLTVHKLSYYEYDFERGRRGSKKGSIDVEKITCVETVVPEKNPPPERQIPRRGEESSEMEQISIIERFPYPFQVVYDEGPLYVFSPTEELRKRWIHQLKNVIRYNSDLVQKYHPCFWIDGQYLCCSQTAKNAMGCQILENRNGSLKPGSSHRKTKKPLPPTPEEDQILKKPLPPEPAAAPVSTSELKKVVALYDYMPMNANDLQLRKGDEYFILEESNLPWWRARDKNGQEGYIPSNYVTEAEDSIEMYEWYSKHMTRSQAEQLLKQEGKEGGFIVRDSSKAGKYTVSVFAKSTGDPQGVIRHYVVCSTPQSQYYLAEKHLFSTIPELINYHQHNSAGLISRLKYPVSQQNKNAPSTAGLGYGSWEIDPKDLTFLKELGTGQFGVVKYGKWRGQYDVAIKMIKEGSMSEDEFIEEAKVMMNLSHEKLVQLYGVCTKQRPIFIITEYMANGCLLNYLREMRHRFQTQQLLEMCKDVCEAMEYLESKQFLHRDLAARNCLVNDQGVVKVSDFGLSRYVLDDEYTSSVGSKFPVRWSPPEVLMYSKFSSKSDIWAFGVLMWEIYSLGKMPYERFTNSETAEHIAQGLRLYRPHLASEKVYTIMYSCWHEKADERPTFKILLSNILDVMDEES
# T4 sequence (Q06187 whole entry C481S): as the sequence (Q06187 whole entry) above, with C481S counted along it
structure (smiles),measurement,setting,value
Cc1c(-c2ccc(C(N)=O)c3[nH]c4cc(C(C)(C)O)ccc4c23)cccc1-n1cnc2ccccc2c1=O [BMS-935177],BTK phosphorylation after inhibitor wash out,[1],regained BTK phosphorylation
C=CC(=O)N1CCC[C@@H](n2nc(-c3ccc(Oc4ccccc4)cc3)c3c(N)ncnc32)C1 [Ibrutinib],apoptosis (Annexin V and propidium incorporation),Mino cells [2],mild effect
same,pIC50,Mino cells [3],5.61
same,pIC50,"Mino BTK C481S cells; read-out: IC50, Mino BTK C481S",5.22
same,pIC50,"Mino BTK C481S cells; read-out: IC50, anti-proliferative activity, Mino BTK C481S",5.20
same,BTK phosphorylation after inhibitor wash out,[1],retained inhibition of BTK phosphorylation
same,pIC50,JeKo-1 cells [4],4.61
same,median progression free survival,[5],~ 14 months
same,overall response rate,[5],68%
same,patients reaching a complete response,[5],21%
same,apoptosis (Annexin V and propidium incorporation),JeKo-1 cells [6],no significant effect
same,pIC50,"JeKo-1 BTK C481S cells; read-out: IC50, JeKo-1 BTK C481S",4.42
same,pIC50,"JeKo-1 BTK C481S cells; read-out: IC50, anti-proliferative activity, JeKo-1 BTK C481S",4.42
Cc1sc2c(c1C)C(c1ccc(Cl)cc1)=N[C@@H](CC(=O)OC(C)(C)C)c1nnc(C)n1-2 [JQ1],pIC50,PI3Kδ,< 4.30
same,pIC50,PI3Kγ,< 4.30
same,"IC50, BTK WT",BTK WT,no activity
same,"IC50, BTK C481S",[7],no activity
same,pIC50,PI3Kα,< 4.30
CN[C@@H]1C[C@H]2O[C@@](C)([C@@H]1OC)n1c3ccccc3c3c4c(c5c6ccccc6n2c5c31)C(=O)NC4 [Staurosporine],"IC50, PI3Kδ",PI3Kδ,no activity
same,"IC50, PI3Kγ",PI3Kγ,no activity
same,"IC50, PI3Kα",PI3Kα,no activity
